pIC50: −log10 of the molar value.
Key:
ATR/ATRIP complex = ATR/ATRIP complex (Homo sapiens (Human), UniProt Q13535); assay: ATR/ATRIP enzymatic assay (Caliper-based); format: biochemical; conditions: FAM-labeled RAD17 peptide, ATP; read-out: ATR/ATRIP Enzyme IC50
Method: Human full-length FLAG-TEV-ATR and His6-ATRIP were co-expressed in HEK293 cells. […] The sample was loaded into a column, and then washed with buffer A three times. Protein was subsequently eluted with 2 ml of buffer B (buffer A+200 μg/ml 3×FLAG peptide).
The ability of new chemical matter to inhibit the ATR catalytic activity in this ATR/ATRIP complex was assessed using a Caliper-based assay. A 2× enzyme solution (i.e., 4 nM enzyme) was prepared using 1× Kinase Reaction Buffer (25 mM HEPES pH 8, 0.0055% Brij-35, 10 mM MnCl2, and 1 mM DTT). […] 10 μL of the 2× enzyme solution was transferred to an assay plate containing 60 nL of test compound (from a 3× serial dilution) in 100% DMSO. Following a 30 minute incubation at 28° C., 10 μL of the 2× peptide solution was then transferred to the same assay plate. The reaction was allowed to incubate at 28° C. for 6 hours. After adding […] of stop buffer (100 mM HEPES pH 7.5, 0.015% Brij-35, 0.2% Coating-3 Reagent (PerkinElmer, catalog # PN760050), and 50 mM EDTA), data were collected on a Caliper instrument. Conversion values were converted to inhibition values via the following equation: % inhibition=(max−conversion)/(max−min)*100, whereby “max” corresponds to the DMSO control and “min” corresponds to the low control. IC50 values were calculated using the following equation in XLFit: Y=Bottom+(Top−Bottom)/1+(IC50/X)^HillSlope).

[1] = test system: ATR-driven phosphorylation of Chk1 kinase at Serine 345 in HT-29 cells; assay: pCHK1 cellular assay (CHK1 p-Ser345 AlphaScreen SureFire); conditions: Homo sapiens, HT-29, read-out: pCHK1 Cell IC50
Method: The microplate was incubated overnight (approximately 20 hours) at 37° C. with 5% CO2 and ambient 02. Stock solutions of the test compounds were prepared in 100% DMSO (Sigma, Catalog # D2650) and serially diluted 1:3 using 100% DMSO. Compounds were additionally diluted 1:33 in culture medium, and 10 ul/well were transferred to the tissue culture plate. Following the compound addition the microplate was incubated at 37° C. for 90 minutes. […] The cells were then washed with PBS and lysed using 10 uL/well […] ® Kit lysis buffer diluted to 1× in water (PerkinElmer Catalog # TGRCHK1S50K), with mixing on an orbital shaker at 500 rpm for 20 min at RT. Lysates were frozen at −20° C. overnight.
The pCHK1 ALPHASCREEN® signal was measured using an ENVISION® plate reader (PerkinElmer). IC50 values were calculated using a four-parameter logistic curve fit using Genedata Screener software. Percent of control for each compound concentration was calculated by the following formula: 100*(Compound-Min)/(Max-Min) where “Max” is the high control, DMSO, and “Min” is the low control, 5 uM ATR inhibitor.

ATR/ATRIP complex, sequence (Q13535 whole entry): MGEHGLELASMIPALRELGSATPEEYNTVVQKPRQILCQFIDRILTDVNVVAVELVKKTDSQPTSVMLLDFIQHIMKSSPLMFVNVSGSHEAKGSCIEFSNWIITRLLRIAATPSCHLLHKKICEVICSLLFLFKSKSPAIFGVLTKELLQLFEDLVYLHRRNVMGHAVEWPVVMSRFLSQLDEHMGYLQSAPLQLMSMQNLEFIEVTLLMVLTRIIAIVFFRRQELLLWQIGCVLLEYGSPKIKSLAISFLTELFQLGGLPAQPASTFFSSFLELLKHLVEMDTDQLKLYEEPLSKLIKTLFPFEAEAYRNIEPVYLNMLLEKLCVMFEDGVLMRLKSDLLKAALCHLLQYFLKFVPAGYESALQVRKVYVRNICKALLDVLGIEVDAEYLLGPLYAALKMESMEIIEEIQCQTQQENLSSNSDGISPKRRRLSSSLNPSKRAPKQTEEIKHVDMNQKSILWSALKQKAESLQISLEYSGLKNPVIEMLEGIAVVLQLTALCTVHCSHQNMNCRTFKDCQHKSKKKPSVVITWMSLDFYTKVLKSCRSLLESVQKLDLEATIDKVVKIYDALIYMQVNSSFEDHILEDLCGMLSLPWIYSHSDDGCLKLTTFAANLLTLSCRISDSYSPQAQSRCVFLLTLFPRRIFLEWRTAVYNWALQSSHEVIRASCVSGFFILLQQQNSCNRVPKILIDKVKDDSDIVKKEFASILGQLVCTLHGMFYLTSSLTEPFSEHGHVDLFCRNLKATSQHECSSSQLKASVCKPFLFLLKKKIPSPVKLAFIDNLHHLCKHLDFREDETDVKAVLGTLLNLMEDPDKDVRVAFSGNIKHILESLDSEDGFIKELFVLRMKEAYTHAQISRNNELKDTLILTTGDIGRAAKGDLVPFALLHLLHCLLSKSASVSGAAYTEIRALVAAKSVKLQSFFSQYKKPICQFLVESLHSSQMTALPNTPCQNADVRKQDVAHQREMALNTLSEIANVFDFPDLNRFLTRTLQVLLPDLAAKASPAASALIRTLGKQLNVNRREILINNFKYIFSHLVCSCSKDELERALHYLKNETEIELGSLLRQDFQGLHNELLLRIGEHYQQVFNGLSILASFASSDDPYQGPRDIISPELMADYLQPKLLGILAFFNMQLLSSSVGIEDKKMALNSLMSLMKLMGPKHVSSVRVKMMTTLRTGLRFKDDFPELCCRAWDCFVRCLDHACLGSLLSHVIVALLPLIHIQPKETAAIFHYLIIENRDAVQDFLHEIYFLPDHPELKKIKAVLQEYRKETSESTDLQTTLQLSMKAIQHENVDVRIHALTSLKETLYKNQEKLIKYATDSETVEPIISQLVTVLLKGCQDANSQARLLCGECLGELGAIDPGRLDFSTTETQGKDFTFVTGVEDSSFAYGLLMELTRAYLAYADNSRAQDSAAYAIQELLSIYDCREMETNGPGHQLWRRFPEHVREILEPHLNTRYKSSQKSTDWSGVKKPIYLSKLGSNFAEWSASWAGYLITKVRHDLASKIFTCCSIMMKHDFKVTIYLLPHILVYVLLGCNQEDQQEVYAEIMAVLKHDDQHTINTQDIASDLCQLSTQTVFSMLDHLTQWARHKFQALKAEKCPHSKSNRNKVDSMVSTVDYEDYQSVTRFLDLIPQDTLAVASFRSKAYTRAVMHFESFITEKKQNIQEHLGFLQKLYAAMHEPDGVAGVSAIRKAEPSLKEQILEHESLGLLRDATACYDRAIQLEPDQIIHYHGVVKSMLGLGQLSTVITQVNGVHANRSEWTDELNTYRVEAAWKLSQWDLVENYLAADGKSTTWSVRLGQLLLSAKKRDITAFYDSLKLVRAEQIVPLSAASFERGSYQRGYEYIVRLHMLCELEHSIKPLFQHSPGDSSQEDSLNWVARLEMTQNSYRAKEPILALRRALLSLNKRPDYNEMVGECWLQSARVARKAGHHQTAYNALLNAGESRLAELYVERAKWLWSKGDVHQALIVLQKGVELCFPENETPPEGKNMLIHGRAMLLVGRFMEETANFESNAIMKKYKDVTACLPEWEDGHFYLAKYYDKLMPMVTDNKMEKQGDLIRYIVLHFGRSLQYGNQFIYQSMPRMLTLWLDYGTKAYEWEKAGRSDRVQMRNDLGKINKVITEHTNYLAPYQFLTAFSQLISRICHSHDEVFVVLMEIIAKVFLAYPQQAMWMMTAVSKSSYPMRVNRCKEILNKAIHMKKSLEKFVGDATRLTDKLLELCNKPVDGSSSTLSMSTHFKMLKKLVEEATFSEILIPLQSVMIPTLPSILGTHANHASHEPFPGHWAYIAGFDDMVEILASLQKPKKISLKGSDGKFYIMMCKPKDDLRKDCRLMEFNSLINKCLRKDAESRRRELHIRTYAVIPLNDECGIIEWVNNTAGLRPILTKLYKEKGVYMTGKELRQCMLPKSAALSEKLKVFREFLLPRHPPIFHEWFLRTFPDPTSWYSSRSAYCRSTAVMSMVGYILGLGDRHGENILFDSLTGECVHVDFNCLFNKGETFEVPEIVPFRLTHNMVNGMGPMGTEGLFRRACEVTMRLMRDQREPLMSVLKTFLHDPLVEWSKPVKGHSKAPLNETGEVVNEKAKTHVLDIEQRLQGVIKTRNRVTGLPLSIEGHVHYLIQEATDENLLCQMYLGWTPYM
ATR/ATRIP complex, sequence (Q8WXE1 whole entry partner): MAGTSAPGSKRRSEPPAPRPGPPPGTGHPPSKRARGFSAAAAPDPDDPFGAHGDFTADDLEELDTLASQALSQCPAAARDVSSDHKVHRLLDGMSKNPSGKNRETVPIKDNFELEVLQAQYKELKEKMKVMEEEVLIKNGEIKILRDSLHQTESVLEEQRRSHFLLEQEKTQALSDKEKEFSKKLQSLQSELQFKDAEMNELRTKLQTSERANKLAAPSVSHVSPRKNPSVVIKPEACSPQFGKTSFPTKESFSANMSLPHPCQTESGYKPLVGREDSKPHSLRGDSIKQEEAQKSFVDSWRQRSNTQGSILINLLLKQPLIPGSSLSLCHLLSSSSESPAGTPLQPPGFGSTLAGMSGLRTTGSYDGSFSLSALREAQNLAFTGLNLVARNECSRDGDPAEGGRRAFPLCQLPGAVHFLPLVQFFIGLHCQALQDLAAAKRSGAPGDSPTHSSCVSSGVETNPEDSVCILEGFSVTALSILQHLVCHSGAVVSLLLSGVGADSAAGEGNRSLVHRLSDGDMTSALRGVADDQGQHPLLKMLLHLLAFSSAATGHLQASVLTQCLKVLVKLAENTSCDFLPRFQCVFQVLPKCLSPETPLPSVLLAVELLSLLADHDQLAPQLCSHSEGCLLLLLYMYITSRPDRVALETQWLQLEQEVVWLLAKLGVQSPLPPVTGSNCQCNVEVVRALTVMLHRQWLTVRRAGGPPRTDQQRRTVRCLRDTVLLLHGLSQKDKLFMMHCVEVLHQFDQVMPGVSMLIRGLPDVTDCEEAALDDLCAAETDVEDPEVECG

Row | Compound | pIC50 (ATR/ATRIP complex) | pIC50 [1]
1 | C[C@@H]1COCCN1c1cc(C2CCN(C(=O)CC3CC3)CC2)nc(-c2ccnc3[nH]ccc23)n1 [Example 25, 2-Cyclopropyl-1-(4-{6-[(3R)-3-methylmorpholin-4-yl]-2-{1H-pyrrolo[2,3-b]pyridin-4-yl}pyrimidin-4-yl}piperidin-1-yl) ethan-1-one] | 7.80 | 6.86
2 | C[C@@H]1COCCN1c1cc(C2CCCCS2(=O)=O)nc(-c2ccnc3[nH]ccc23)n1 (stereo partly drawn) [Example 26, 2-{6-[(3R)-3-Methyl-morpholin-4-yl]-2-{1H-pyrrolo[2,3-b]pyridin-4-yl}pyrimidin-4-yl}-1λ^6-thiane-1,1-dione] | 8.10 | 7.07
3 | CC(C)OC(=O)N1CCC(c2cc(N3CCOC[C@H]3C)nc(-c3ccnc4[nH]ccc34)n2)CC1 [Example 27, Propan-2-yl 4-{6-[(3R)-3-methylmorpholin-4-yl]-2-{1H-pyrrolo[2,3-b]pyridin-4-yl}pyrimidin-4-yl}piperidine-1-carboxylate] | 7.82 | 6.39
4 | C[C@@H]1COCCN1c1cc(C2CCN(C(=O)OCC3CC3)CC2)nc(-c2ccnc3[nH]ccc23)n1 [Example 28, Cyclopropylmethyl 4-{6-[(3R)-3-methylmorpholin-4-yl]-2-{1H-pyrrolo[2,3-b]-pyridin-4-yl}pyrimidin-4-yl}piperidine-1-carboxylate] | 7.77 | 6.57
5 | C[C@@H]1COCCN1c1cc(C2(C)CCCS2(=O)=O)nc(-c2ccnc3[nH]ccc23)n1 (stereo partly drawn) [Example 29, 2-Methyl-2-(6-((R)-3-methylmorpholino)-2-(1H-pyrrolo[2,3-b]pyridin-4-yl)pyrimidin-4-yl)tetrahydrothiophene 1,1-dioxide] | 8.10 | 7.05
6 | C[C@@H]1COCCN1c1cc([C@]2(C)CCCS2(=O)=O)nc(-c2ccnc3[nH]ccc23)n1 [Example 30a, (S)-2-methyl-2-(6-((R)-3-methylmorpholino)-2-(1H-pyrrolo[2,3-b]pyridin-4-yl)pyrimidin-4-yl)tetrahydrothiophene 1,1-dioxide] | 8.22 | 7.12
7 | C[C@@H]1COCCN1c1cc([C@@]2(C)CCCS2(=O)=O)nc(-c2ccnc3[nH]ccc23)n1 [Example 30b, (R)-2-methyl-2-(6-((R)-3-methylmorpholino)-2-(1H-pyrrolo[2,3-b]pyridin-4-yl)pyrimidin-4-yl)tetrahydrothiophene 1,1-dioxide] | 8.22 | 6.97
